pEC50: −log10 of the molar value.
Legend:
[1] = target: T1, human CB1R (Homo sapiens, UniProt P21554); assay: PathHunter β-arrestin recruitment assay, hCB1R; type: cell-based; conditions: read-out: hCB1R: beta arrestin EC50
T1 construct: host or cells: CHO
Protocol: Assays were carried out using the PathHunter hCB1_bgal, hCB2_bgal, or mCB2_bgal CHOK1 β-arrestin recruitment assay kit (DiscoveRx, Fremont, CA, USA) as previously described. A total of 5000 cells per well were seeded in 384-well plates (Perkin Elmer, MA, USA) containing 20 μL cell culture medium and incubated for 16–18 h at 37 °C and 5% CO2. Cells were stimulated with 10 μM of each agonist or 11 increasing concentrations and incubated for 90 min at 37 °C and 5% CO2. […] The cells were incubated for 90 min at 37 °C and 5% CO2. Compounds in DMSO stock solutions were added using a HP D300 Digital Dispenser (Tecan, Mannedorf, Switzerland). The final concentration of organic solvent per assay point was ≤ 0.1%. The PathHunter Detection mixture was used, according to the manufacturer’s protocol, to determine the β-galactosidase enzyme activity. Detection mixture, 12 μL per well, was added and the plate was incubated for 1 h in the dark at room temperature. Chemiluminescence, indicated as relative light unit, was measured on an EnVision multilabel plate reader (Perkin Elmer, MA, USA).

[2] = test system: leukocyte-endothelial adhesion in the iridial microcirculation; assay: Endotoxin-induced uveitis (EIU), intravital microscopy, CB2R-/- mice; type: in vivo; conditions: topical 1.5% w/v, 6 h after LPS
Excerpt: Male BALB/c wild-type (WT; 25-30 g; Charles River, QC, Canada) and age-matched (6–8 weeks) CB2R knockout mice (CB2R^-/-) were used for experiments. CB2R^-/- mice were obtained by crossing male C57BL/6J CB2R^-/- mice (strain B6.129P2-Cnr2tm1Dgen/J; Jackson Laboratory, Bar Harbor, ME, USA) with inbred BALB/c female mice (Charles River) for ten generations. Heterozygote mice from separate parents were then bred for a homozygote knock-out of the CB2R^-/-. CB2R^-/- was confirmed via genotyping using DNA extracted from ear punches and the Accustart II Mouse Genotyping Kit (Quanta Biosciences, MD, USA). […]
IVM was conducted as previously described in Toguri et al. (2014). […] The iridial microcirculation was observed using an Olympus OV100 Small Animal Imaging System (Olympus, Tokyo, Japan), which contains an MT-20 light source, fluorescence excitation from a xenon lamp (150 W) and an excitation filter for rhodamine-6G (excitation 515–560 nm, emission 590 nm). Images were captured in real-time by a black and white DP70 CCD C-mount camera and digitally recorded using HCImage software (Hamamatsu, Herrsching, Germany).
During IVM animals were placed on a heating pad in a stereotactic frame, and Tear-Gel® (Novartis Pharmaceuticals Canada Inc., Dorval, QC, Canada) was applied to their cornea. […] Two to four videos of each quadrant were recorded for 30 s each. […]

T1 sequence (P21554 whole entry): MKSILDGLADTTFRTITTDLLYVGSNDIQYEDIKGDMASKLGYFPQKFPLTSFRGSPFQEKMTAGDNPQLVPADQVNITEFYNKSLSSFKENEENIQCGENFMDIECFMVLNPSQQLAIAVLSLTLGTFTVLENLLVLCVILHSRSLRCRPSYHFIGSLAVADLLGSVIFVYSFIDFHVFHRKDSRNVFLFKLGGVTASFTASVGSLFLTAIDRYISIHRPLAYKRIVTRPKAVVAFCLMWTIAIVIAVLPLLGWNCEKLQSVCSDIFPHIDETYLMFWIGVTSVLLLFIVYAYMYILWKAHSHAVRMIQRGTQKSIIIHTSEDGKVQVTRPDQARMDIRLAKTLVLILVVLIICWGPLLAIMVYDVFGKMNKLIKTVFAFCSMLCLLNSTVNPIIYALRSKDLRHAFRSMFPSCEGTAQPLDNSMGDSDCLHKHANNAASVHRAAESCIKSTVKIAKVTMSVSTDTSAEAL

CC(C)(C)c1nc(N2CC[C@H](O)C2)c2nnn(Cc3nnnn3C3CC3)c2n1 [RO6871304, (3S)-1-{5-tert-butyl-3-[(1-cyclopropyl-1H-tetrazol-5-yl)methyl]-3H-[1,2, 3]triazolo[4,5-d]pyrimidin-7-yl}pyrrolidin-3-ol]
pEC50 [1]: < 4.52
leukocyte adherence in CB2R-/- mice with EIU [2]: no significant reduction in leukocyte adherence

Reference: paper PMC6767236, “Selective Cannabinoid 2 Receptor Agonists as Potential Therapeutic Drugs for the Treatment of Endotoxin-Induced Uveitis” (Molecules, 2019)
